Usually IC50 stands for the concentration that gives 50% inhibition. Lower therefore signals greater potency.

Our source for the IC50 values is US20210139484A1, “DIHYDROISOQUINOLINE-2(1H)-CARBOXAMIDE AND RELATED COMPOUNDS AND THEIR USE IN TREATING MEDICAL CONDITIONS” (GOSSAMER BIO SERVICES, INC., priority 2018, published 2021).

Molecules are shown by their SMILES.

The target in one test is T1, human HPK1 protein (Homo sapiens, UniProt Q92918).
T1 construct: recombinant human HPK1 protein (a.a. 1-346) was expressed in Sf9 insect cells; GST (N); purchased Signalchem M23-11G; host or cells: Sf9 insect cells (baculovirus)
T1 sequence (Q92918 1-346): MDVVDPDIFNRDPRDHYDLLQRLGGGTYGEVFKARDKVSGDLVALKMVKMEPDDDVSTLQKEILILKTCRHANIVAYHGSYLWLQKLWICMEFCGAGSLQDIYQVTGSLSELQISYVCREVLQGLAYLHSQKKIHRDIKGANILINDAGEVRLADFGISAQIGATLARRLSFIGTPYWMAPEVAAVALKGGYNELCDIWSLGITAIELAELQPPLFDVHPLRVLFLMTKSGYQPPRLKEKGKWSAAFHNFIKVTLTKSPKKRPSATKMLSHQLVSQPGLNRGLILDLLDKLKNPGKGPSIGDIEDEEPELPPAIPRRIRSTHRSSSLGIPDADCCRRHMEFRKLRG
Kind of test: Human HPK1 protein TR-FRET assay. In kind it is biochemical. Conditions: 1 mM ATP, Table 19. The gist of the method:
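Read-out was TR-FRET using Eu-labeled anti-phospho-CREB (Ser133) antibody, with the 665/615 nm signal ratio normalised to DMSO-only wells and fitted by a 4-parameter logistic model for IC50. Reactions held 10 nM Sf9-expressed GST-HPK1 (a.a. 1-346), 100 nM CREBtide and 1 mM ATP, run 60 minutes at room temperature, pH 7.5.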
`CCN1CCN(Cc2ccc(NC(=O)N3CCc4cc(Oc5ccnc6[nH]ccc56)ccc4C3)cc2C(F)(F)F)CC1` [X-1] showed a 50% inhibitory concentration (IC50) of 500 to 5000 nM.

`CCN1CCN(Cc2ccc(NC(=O)N3CCc4ccc(Oc5ccnc6[nH]ccc56)cc4C3=O)cc2C(F)(F)F)CC1` [X-2] showed a 50% inhibitory concentration (IC50) of 500 to 5000 nM.

The compound `CCN1CCN(Cc2ccc(NC(=O)N3CCc4ccc(Sc5ncnn6cccc56)cc4C3)cc2C(F)(F)F)CC1` [X-3] came in with an IC50 of 500 to 5000 nM.

The compound `CCN1CCN(Cc2ccc(NC(=O)N3CC(C)c4ccc(Oc5ccnc6[nH]ccc56)cc4[C@@H]3C)cc2C(F)(F)F)CC1` (some centres unmarked) [X-4] gave an IC50 above 10000 nM. Same read-out and setting: the figure for `CCN1CCN(Cc2ccc(NC(=O)N3CCc4nc(C)c(Oc5ccnc6[nH]ccc56)cc4C3)cc2C(F)(F)F)CC1` [X-5] is below 500 nM; for `Cc1cc2c(Oc3ccc4c(c3)[C@H](C)N(C(=O)Nc3ccc5c(N6CCN(C)CC6)cccc5c3)CC4)ccnc2[nH]1` [X-6] it is below 500 nM. Same read-out and setting: in the case of `Cc1cc2c(Oc3ccc4c(c3)[C@H](C)N(C(=O)Nc3cnc5c(N6CCN(C)CC6)cccc5c3)CC4)ccnc2[nH]1` [X-7] it was below 500 nM; in that of `Cc1cc2c(Oc3ccc4c(c3)[C@H](C)N(C(=O)Nc3cnc5c(c3)CCCN5C3CCN(C)CC3)CC4)ccnc2[nH]1` [X-8], 5000 to 10000 nM.

Still in this test, the particulars now being: 1 mM ATP, Table 20.
In the case of `CCN1CCN(Cc2ccc(NC(=O)N3CCc4ccc(-c5ccc6cc(NC)ncc6c5)cc4C3)cc2C(F)(F)F)CC1` [XI-1], the 50% inhibitory concentration (IC50) is 500 to 5000 nM. On to `CCN1CCN(Cc2ccc(NC(=O)N3CCc4c(cc(F)cc4Oc4ncnn5cccc45)C3)cc2C(F)(F)F)CC1` [XI-2], for which the half-inhibitory concentration (IC50) was in the range of 500 to 5000 nM. On to `CCN1CCN(Cc2ccc(NC(=O)N3CCc4ncc(Oc5ccnc6[nH]ccc56)cc4[C@@H]3C)cc2C(F)(F)F)CC1` [XI-3], for which the half-maximal inhibitory concentration (IC50) is below 500 nM. On the same count and under the same terms, the figure for `CCN1CCN(Cc2ccc(NC(=O)N3CCc4ncc(Oc5ccnc6[nH]ccc56)cc4[C@H]3C)cc2C(F)(F)F)CC1` [XI-4] is 500 to 5000 nM; for `CCN1CCN(Cc2ccc(NC(=O)N3Cc4cc(Oc5ccnc6[nH]c(C)cc56)cnc4[C@H](C)C3)cc2C(F)(F)F)CC1` [XI-5] it is below 500 nM; for `CCN1CCN(Cc2ccc(NC(=O)N3Cc4cc(Oc5ncnc6[nH]c(C)cc56)cnc4[C@@H](C)C3)cc2C(F)(F)F)CC1` [XI-6] it is below 500 nM. `CCN1CCN(Cc2ccc(NC(=O)N3CCc4ncc(Oc5ncnc6[nH]c(C)cc56)cc4[C@@H]3C)cc2C(F)(F)F)CC1` [XI-7] came in with an IC50 of 500 to 5000 nM. `CCN1CCN(Cc2ccc(NC(=O)N3CCc4ncc(Oc5ncnc6[nH]c(C)cc56)cc4[C@H]3C)cc2C(F)(F)F)CC1` [XI-8]: the IC50 fell in the range of 5000 to 10000 nM.

`CCN1CCN(Cc2ccc(NC(=O)N3Cc4cc(Oc5ccnc6[nH]ccc56)cnc4[C@@H](C)C3)cc2C(F)(F)F)CC1` [XI-10] returned an IC50 below 500 nM. On the same count and under the same terms, in the case of `CCN1CCN(Cc2ccc(NC(=O)N3Cc4cc(Oc5ccnc6[nH]ccc56)cnc4[C@H](C)C3)cc2C(F)(F)F)CC1` [XI-11] it was below 500 nM. Still for that read-out and setting: in the case of `CCN1CCN(Cc2ccc(NC(=O)N3CCc4ncc(Oc5cccc6[nH]ccc56)cc4C3C)cc2C(F)(F)F)CC1` (centres unmarked) [XI-12] it was above 10000 nM. On the same count and under the same terms, the figure for `CN1CCN(Cc2ncc(NC(=O)N3CCc4ccc(Oc5c(F)cnc6[nH]c(-c7cnn(C)c7)cc56)cc4C3)cc2C(F)(F)F)CC1` [XII-1] is below 500 nM; for `CCN1CCN(Cc2ccc(NC(=O)N3CCc4ccc(Oc5c(F)cnc6[nH]c(-c7cnn(C)c7)cc56)cc4[C@@H]3C)cc2C(F)(F)F)CC1` [XII-2] it is below 500 nM; for `C[C@H]1c2cc(Oc3c(F)cnc4[nH]c(-c5cnn(C)c5)cc34)ccc2CCN1C(=O)Nc1ccc(CN2CCN(C)CC2)c(C(F)(F)F)c1` [XII-3] it is below 500 nM. `CN1CC[C@@H](Oc2ncc(NC(=O)N3CCc4ccc(Oc5c(F)cnc6[nH]c(-c7cnn(C)c7)cc56)cc4C3)cc2C(F)(F)F)[C@@H](O)C1` [XII-4] displayed a half-inhibitory concentration (IC50) below 500 nM. Take `CN1CCN(Cc2ccc(NC(=O)N3CCc4ccc(Oc5c(F)cnc6[nH]c(-c7ccncc7)cc56)cc4C3)cc2C(F)(F)F)CC1` [XII-5]: the half-maximal inhibitory concentration (IC50) was below 500 nM. On the same count and under the same terms, the figure for `CN1CCN(Cc2ncc(NC(=O)N3CCc4ccc(Oc5c(F)cnc6[nH]c(-c7cccnc7)cc56)cc4C3)cc2C(F)(F)F)CC1` [XII-6] is below 500 nM; for `CN1CCN(Cc2ccc(NC(=O)N3CCc4ccc(Oc5c(F)cnc6[nH]c(-c7cccnc7)cc56)cc4C3)cc2C(F)(F)F)CC1` [XII-7] it is below 500 nM. Compound `CN1CCN(Cc2ncc(NC(=O)N3CCc4ccc(Oc5c(F)cnc6[nH]c(-c7cn[nH]c7)cc56)cc4C3)cc2C(F)(F)F)CC1` [XII-8] showed an IC50 below 500 nM. `CN1CCN(Cc2ccc(NC(=O)N3CCc4ccc(Oc5c(F)cnc6[nH]c(-c7cn[nH]c7)cc56)cc4C3)cc2C(F)(F)F)CC1` [XII-9] yielded an IC50 below 500 nM. On to `CN1CCN(Cc2ncc(NC(=O)N3CCc4ccc(Oc5c(F)cnc6[nH]c(-c7ccncc7)cc56)cc4C3)cc2C(F)(F)F)CC1` [XII-10], for which the concentration for half-maximal inhibition (IC50) is below 500 nM.

With `C[C@H]1CN(C(=O)Nc2cnc(CN3CCN(C)CC3)c(C(F)(F)F)c2)Cc2cc(Oc3c(F)cnc4[nH]c(-c5cnn(C)c5)cc34)ccc21` [XII-11], the IC50 was below 500 nM. The same measure, in the same setting: the figure for `C[C@H]1CN(C(=O)Nc2ccc(CN3CCN(C)CC3)c(C(F)(F)F)c2)Cc2cc(Oc3c(F)cnc4[nH]c(-c5cnn(C)c5)cc34)ccc21` [XII-12] is below 500 nM. Still for that read-out and setting: the figure for `CN1CCC(Oc2ncc(NC(=O)N3CCc4ccc(Oc5c(F)cnc6[nH]c(-c7cnn(C)c7)cc56)cc4C3)cc2C(F)(F)F)CC1` [XII-13] is below 500 nM; for `Cn1cc(-c2cc3c(Oc4ccc5c(c4)CN(C(=O)Nc4ccc(CN6CCN(CCO)CC6)c(C(F)(F)F)c4)CC5)c(F)cnc3[nH]2)cn1` [XII-14] it is below 500 nM. Still for that read-out and setting: in the case of `CCN1CCN(Cc2ccc(NC(=O)N3CCc4ccc(Oc5c(F)cnc6[nH]c(-c7cnn(C)c7)cc56)cc4C3)cc2C(F)(F)F)CC1` [XII-15] it was below 500 nM; in that of `CN1CCN(Cc2cc(F)c(NC(=O)N3CCc4ccc(Oc5c(F)cnc6[nH]c(-c7cnn(C)c7)cc56)cc4C3)cc2C(F)(F)F)CC1` [XII-16], below 500 nM. The compound `CC[C@@H]1CN(C)CC[C@H]1Oc1ncc(NC(=O)N2CCc3ccc(Oc4ccnc5[nH]c(C)cc45)cc3[C@@H]2C)cc1C(F)(F)F` [XIII-1] registered an IC50 below 500 nM. On to `CCN1CCN(Cc2ccc(NC(=O)N3CCc4ccc(Oc5ccnc6[nH]c(CO)cc56)cc4[C@@H]3C)cc2C(F)(F)F)CC1` [XIII-2], for which the half-inhibitory concentration (IC50) is below 500 nM. Turning to `C[C@H]1c2cc(Oc3ccnc4[nH]c(CO)cc34)ccc2CCN1C(=O)Nc1cnc(OC2CCN(C)CC2)c(C(F)(F)F)c1` [XIII-3], the IC50 is below 500 nM. On the same count and under the same terms, in the case of `C[C@H]1c2cc(Oc3ccnc4[nH]c(C5(O)COC5)cc34)ccc2CCN1C(=O)Nc1cnc(OC2CCN(C)CC2)c(C(F)(F)F)c1` [XIII-4] it was below 500 nM. In turn, `C[C@H]1c2cc(Oc3ccnc4[nH]c(CO)cc34)ccc2CCN1C(=O)Nc1ccc(CN2CCN(CCO)CC2)c(C(F)(F)F)c1` [XIII-5] returned an IC50 below 500 nM.

For the compound `C[C@H]1c2cc(Oc3ccnc4[nH]c(C5(O)COC5)cc34)ccc2CCN1C(=O)Nc1ccc(CN2CCN(CCO)CC2)c(C(F)(F)F)c1` [XIII-6], the IC50 was below 500 nM. `C[C@H]1c2cc(Oc3ccnc4[nH]c(C5(O)COC5)cc34)ccc2CCN1C(=O)Nc1ccc(CN2CCNCC2)c(C(F)(F)F)c1` [XIII-7] showed a half-maximal inhibitory concentration (IC50) below 500 nM. Turning to `C[C@H]1c2cc(Oc3ccnc4[nH]c(CO)cc34)ccc2CCN1C(=O)Nc1ccc(CN2CCNCC2)c(C(F)(F)F)c1` [XIII-8], the concentration for half-maximal inhibition (IC50) was below 500 nM. On the same count and under the same terms, in the case of `C[C@H]1c2cc(Oc3ccnc4[nH]c(CO)cc34)ccc2CCN1C(=O)Nc1ccc(CN2CCN(C)CC2)c(C(F)F)c1` [XIII-9] it was below 500 nM; in that of `C[C@H]1c2cc(Oc3ccnc4[nH]c(C5(O)COC5)cc34)ccc2CCN1C(=O)Nc1ccc(CN2CCN(C)CC2)c(C(F)F)c1` [XIII-10], below 500 nM. Compound `C[C@H]1c2cc(Oc3ccnc4[nH]c(C5(O)COC5)cc34)ccc2CCN1C(=O)Nc1ccc(CN2CCN(CCO)CC2)c(C(F)F)c1` [XIII-11] gave a half-inhibitory concentration (IC50) below 500 nM.

The compound `C[C@H]1c2cc(Oc3ccnc4[nH]c(CO)cc34)ccc2CCN1C(=O)Nc1ccc(CN2CCN(CCO)CC2)c(C(F)F)c1` [XIII-12] showed an IC50 below 500 nM. In turn, `CCN1CCN(Cc2ccc(NC(=O)N3CCc4ccc(Oc5cc(NC(=O)OC)ncc5F)cc4[C@@H]3C)cc2C(F)(F)F)CC1` [XIII-13] returned a half-inhibitory concentration (IC50) below 500 nM. On the same count and under the same terms, in the case of `CCN1CCN(Cc2ccc(NC(=O)N3CCc4ccc(Oc5cc(NC(=O)c6ccnnc6)ncc5F)cc4[C@@H]3C)cc2C(F)(F)F)CC1` [XIII-14] it was below 500 nM; in that of `CCN1CCN(Cc2ccc(NC(=O)N3CCc4ccc(Oc5cc(NC(=O)C6CC6)ncc5F)cc4[C@@H]3C)cc2C(F)(F)F)CC1` [XIII-15], below 500 nM; in that of `CCN1CCN(Cc2ccc(NC(=O)N3CCc4ccc(Oc5c(F)cnc6[nH]c(C7(O)COC7)cc56)cc4[C@@H]3C)cc2C(F)(F)F)CC1` [XIII-16], below 500 nM.

In the case of `CCN1CCN(Cc2ccc(NC(=O)N3CCc4ccc(Oc5cc(NC(=O)c6cnn(C)c6)ncc5F)cc4[C@@H]3C)cc2C(F)(F)F)CC1` [XIII-17], the IC50 was below 500 nM. `CCC1CN(C(=O)Nc2ccc(CN3CCN(CC)CC3)c(C(F)(F)F)c2)Cc2cc(Oc3ncnc4[nH]c(C)cc34)cnc21` (centres unmarked) [XIV-3] yielded an IC50 below 500 nM.
